Measured values reported in ChEMBL document CHEMBL5465560, “Selectivity Literature for EUbOPEN Chemogenomic Library” (2024).
Values belong to the molecule of their own block, whether it stands above or below them.

Assays:
Histamine H1 receptor = Histamine H1 receptor (Homo sapiens, UniProt P35367); test: Selectivity interaction (Panel of kinases, GPCRs, ion channels and transporters (enzymatic assay)) EUB0000266bCl HRH1
[1] = molecular target: Tyrosine-protein kinase SYK (Homo sapiens, UniProt P43405); test: Selectivity interaction (ActivX KiNativ screen (kinase selectivity in THP-1 cell lysates)) EUB0000639a SYK; type: subcellular; details: lysate, at 5 µM
[2] = molecular target: G protein-coupled receptor kinase 4 (Homo sapiens) (UniProt P32298); test: Selectivity interaction (Kinase panel (Invitrogen)) EUB0000639a GRK4; details: at 200 nM
[3] = molecular target: Protein kinase C theta type (Homo sapiens, UniProt Q04759); test: Selectivity interaction (KinomeScan (DiscoverX)) EUB0000092b PRKCQ; details: at 10 µM
[4] = molecular target: Tyrosine-protein kinase ABL2 (Homo sapiens, UniProt P42684); test: Selectivity interaction (Upstate Kinase Profiler service (Millipore)) EUB0000056c ABL2; details: at 1 µM
[5] = molecular target: T1, Serine/threonine-protein kinase PLK4 (Homo sapiens) (UniProt O00444); test: Selectivity interaction (KinomeScan (DiscoverX)) EUB0000045b PLK4
T1 sequence (whole entry): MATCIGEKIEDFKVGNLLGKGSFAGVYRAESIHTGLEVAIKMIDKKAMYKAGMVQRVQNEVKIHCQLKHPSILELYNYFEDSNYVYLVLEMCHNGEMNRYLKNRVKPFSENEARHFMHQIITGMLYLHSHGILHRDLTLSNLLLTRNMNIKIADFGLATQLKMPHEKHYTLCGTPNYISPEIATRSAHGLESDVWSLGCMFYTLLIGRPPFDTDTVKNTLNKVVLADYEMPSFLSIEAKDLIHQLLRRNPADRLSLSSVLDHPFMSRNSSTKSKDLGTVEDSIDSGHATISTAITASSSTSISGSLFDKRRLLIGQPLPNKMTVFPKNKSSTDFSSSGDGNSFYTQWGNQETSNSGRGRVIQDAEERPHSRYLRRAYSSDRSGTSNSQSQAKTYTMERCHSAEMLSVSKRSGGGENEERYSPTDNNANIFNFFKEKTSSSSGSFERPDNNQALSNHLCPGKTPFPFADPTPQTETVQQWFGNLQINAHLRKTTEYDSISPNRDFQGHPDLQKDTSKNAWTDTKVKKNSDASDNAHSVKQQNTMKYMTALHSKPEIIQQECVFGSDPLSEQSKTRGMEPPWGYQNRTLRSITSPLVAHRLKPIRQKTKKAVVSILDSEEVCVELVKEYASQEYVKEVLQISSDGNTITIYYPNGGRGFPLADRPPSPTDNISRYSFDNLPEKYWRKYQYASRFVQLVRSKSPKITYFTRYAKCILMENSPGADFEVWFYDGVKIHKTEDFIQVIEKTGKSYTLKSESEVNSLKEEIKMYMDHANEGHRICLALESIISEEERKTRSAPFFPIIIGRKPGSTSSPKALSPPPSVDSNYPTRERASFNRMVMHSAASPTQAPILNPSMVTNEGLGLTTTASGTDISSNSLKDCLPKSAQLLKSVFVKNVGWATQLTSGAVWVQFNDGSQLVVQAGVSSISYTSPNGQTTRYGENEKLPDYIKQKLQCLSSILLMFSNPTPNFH

[6] = molecular target: Cyclin-dependent kinase 7 (Homo sapiens, UniProt P50613); test: Selectivity interaction (KinomeScan (DiscoverX)) EUB0000045b CDK7
[7] = molecular target: T2, Peripheral plasma membrane protein CASK (Homo sapiens) (UniProt O14936); test: Selectivity interaction (KinomeScan (DiscoverX)) EUB0001619a CASK; details: at 1 µM
T2 sequence (whole entry): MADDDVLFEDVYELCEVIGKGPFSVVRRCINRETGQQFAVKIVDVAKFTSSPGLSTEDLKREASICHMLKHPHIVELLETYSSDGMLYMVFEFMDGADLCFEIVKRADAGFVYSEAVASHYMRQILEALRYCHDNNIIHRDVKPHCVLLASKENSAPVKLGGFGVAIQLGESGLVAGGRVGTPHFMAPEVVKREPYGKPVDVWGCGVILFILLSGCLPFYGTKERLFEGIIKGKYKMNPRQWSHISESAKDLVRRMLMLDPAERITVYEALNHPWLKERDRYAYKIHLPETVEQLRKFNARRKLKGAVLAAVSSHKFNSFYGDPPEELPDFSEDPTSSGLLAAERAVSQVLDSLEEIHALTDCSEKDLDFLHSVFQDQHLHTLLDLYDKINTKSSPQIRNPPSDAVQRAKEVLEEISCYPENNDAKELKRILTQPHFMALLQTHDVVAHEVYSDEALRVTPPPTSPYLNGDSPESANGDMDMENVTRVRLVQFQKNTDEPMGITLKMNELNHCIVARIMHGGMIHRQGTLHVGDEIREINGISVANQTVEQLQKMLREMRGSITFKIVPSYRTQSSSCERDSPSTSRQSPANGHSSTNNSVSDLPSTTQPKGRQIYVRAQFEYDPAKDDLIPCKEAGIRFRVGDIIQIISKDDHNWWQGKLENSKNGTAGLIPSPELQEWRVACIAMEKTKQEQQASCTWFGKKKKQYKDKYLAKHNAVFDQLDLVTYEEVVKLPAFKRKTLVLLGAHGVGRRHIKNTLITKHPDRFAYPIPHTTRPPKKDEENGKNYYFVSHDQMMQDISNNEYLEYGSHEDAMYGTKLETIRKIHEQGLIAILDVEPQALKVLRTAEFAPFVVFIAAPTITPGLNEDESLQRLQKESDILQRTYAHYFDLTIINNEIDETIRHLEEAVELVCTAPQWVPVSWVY

[8] = molecular target: STE20/SPS1-related proline-alanine-rich protein kinase (Homo sapiens) (UniProt Q9UEW8); test: Selectivity interaction (Kinase panel (KiNativ target engagement assay in Jurkat cells)) EUB0001635a STK39; type: cell-based; details: Selectivity number of off-targets 0.0, Selectivity number of targets 233.0, Source Knowledge https://www.sciencedirect.com/science/article/pii/S2451945619300674?via%3Dihub, at 1 µM
[9] = molecular target: LIM domain kinase 2 (Homo sapiens) (UniProt P53671); test: Selectivity interaction (KinomeScan (DiscoverX)) EUB0000666a LIMK2; details: at 10 µM
[10] = molecular target: Protein-tyrosine kinase 2-beta (Homo sapiens) (UniProt Q14289); test: Selectivity interaction (KinomeScan (DiscoverX)) EUB0000666a PTK2B; details: at 10 µM
Sequence of Protein-tyrosine kinase 2-beta (Homo sapiens) (Q14289 whole entry, looked up): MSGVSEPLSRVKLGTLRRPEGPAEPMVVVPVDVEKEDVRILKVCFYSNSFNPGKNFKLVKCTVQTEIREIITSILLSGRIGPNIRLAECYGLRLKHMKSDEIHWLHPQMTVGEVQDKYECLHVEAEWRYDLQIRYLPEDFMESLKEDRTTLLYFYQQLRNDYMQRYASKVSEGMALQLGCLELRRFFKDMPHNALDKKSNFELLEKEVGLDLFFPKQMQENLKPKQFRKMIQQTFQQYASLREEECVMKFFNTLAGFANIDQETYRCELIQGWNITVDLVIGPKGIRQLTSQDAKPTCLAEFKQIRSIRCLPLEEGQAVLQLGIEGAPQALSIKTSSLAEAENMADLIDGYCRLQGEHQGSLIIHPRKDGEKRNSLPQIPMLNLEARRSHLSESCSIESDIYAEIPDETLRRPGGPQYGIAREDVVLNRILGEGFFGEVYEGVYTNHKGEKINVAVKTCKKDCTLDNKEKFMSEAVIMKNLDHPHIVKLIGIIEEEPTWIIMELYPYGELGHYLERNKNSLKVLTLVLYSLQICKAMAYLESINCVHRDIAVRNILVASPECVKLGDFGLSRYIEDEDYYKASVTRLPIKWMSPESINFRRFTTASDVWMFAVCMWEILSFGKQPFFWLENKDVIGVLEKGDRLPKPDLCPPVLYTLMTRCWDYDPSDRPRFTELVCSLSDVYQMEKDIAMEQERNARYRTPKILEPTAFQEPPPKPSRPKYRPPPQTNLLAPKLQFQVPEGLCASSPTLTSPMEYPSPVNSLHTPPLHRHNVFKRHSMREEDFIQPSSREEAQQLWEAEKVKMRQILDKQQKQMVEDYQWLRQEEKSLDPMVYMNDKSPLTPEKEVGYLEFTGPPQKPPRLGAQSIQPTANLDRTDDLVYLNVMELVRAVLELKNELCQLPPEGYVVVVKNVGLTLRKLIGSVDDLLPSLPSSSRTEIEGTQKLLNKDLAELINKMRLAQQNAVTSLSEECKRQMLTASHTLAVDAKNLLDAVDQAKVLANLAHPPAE

Sequence of Cyclin-dependent kinase 7 (P50613 whole entry): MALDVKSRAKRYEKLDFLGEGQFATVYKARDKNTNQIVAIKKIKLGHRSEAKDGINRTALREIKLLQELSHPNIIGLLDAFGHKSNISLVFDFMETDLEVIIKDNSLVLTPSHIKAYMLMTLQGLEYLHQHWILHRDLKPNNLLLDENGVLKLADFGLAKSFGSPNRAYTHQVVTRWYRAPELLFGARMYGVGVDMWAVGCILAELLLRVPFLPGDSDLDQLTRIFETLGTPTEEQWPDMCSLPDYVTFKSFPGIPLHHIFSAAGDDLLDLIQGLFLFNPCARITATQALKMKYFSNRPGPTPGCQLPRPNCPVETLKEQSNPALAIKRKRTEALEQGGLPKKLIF
Sequence of Protein kinase C theta type (Q04759 whole entry, looked up): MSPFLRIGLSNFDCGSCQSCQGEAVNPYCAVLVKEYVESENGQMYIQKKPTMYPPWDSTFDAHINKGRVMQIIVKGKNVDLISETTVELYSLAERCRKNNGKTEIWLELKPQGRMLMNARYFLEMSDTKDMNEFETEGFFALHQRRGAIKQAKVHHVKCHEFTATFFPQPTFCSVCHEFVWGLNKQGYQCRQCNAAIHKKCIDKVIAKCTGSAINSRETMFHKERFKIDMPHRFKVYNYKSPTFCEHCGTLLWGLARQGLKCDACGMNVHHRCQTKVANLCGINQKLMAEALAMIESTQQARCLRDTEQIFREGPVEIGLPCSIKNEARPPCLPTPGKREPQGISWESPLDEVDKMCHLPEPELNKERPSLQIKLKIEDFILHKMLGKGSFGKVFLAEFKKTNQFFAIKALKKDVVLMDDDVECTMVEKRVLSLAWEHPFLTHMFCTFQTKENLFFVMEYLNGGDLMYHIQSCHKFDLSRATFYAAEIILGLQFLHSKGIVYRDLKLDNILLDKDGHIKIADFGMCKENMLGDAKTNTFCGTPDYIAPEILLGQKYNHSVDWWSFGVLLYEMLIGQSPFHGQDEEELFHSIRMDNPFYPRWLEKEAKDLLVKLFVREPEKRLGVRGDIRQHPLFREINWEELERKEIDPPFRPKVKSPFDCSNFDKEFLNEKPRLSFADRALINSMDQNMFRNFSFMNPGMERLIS
Sequence of G protein-coupled receptor kinase 4 (Homo sapiens) (P32298 whole entry, looked up): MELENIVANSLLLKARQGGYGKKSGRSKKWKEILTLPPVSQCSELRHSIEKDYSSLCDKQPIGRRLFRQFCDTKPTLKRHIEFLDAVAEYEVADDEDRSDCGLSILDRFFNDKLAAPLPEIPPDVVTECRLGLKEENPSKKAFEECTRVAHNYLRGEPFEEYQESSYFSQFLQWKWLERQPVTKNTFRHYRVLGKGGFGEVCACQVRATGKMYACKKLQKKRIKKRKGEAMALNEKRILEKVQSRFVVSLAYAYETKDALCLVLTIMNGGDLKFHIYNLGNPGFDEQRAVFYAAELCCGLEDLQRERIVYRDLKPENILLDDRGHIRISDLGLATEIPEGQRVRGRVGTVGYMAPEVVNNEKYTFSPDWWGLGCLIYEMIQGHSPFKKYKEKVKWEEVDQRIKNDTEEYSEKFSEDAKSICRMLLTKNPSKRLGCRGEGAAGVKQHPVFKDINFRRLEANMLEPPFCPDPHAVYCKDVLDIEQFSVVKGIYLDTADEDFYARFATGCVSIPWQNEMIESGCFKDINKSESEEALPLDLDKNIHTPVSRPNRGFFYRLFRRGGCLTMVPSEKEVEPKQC
Sequence of LIM domain kinase 2 (Homo sapiens) (P53671 whole entry, looked up, the tested form may be a part): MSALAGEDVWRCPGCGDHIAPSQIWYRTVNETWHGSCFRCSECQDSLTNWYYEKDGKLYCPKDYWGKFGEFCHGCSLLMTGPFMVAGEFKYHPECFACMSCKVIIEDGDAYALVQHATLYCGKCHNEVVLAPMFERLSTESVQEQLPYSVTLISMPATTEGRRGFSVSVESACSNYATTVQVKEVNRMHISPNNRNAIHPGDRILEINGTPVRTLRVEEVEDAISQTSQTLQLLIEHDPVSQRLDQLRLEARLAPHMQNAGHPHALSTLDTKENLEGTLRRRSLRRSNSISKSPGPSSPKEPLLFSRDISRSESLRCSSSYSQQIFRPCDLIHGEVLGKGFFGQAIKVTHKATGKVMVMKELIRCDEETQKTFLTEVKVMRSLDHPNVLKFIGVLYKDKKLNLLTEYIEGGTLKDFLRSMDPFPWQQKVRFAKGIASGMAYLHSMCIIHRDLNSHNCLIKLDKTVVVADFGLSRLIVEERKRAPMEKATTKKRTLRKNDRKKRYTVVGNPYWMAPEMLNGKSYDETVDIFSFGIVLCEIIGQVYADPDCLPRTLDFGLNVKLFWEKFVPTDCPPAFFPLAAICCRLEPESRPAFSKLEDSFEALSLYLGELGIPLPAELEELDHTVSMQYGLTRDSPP
Sequence of Histamine H1 receptor (P35367 whole entry): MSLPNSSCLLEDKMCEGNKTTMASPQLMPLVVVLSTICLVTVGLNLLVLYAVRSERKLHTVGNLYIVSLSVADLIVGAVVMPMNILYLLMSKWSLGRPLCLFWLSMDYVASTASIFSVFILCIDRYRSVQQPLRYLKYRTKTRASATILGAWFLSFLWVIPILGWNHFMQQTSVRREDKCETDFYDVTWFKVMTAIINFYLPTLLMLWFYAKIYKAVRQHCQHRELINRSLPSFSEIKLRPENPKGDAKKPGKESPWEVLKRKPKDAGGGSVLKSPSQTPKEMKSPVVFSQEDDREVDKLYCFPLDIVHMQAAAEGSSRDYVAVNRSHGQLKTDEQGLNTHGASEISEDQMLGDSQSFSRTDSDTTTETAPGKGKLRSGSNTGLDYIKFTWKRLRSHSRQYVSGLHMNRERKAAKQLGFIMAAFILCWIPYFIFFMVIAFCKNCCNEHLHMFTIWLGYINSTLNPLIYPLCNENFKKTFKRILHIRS
Sequence of Tyrosine-protein kinase ABL2 (P42684 whole entry): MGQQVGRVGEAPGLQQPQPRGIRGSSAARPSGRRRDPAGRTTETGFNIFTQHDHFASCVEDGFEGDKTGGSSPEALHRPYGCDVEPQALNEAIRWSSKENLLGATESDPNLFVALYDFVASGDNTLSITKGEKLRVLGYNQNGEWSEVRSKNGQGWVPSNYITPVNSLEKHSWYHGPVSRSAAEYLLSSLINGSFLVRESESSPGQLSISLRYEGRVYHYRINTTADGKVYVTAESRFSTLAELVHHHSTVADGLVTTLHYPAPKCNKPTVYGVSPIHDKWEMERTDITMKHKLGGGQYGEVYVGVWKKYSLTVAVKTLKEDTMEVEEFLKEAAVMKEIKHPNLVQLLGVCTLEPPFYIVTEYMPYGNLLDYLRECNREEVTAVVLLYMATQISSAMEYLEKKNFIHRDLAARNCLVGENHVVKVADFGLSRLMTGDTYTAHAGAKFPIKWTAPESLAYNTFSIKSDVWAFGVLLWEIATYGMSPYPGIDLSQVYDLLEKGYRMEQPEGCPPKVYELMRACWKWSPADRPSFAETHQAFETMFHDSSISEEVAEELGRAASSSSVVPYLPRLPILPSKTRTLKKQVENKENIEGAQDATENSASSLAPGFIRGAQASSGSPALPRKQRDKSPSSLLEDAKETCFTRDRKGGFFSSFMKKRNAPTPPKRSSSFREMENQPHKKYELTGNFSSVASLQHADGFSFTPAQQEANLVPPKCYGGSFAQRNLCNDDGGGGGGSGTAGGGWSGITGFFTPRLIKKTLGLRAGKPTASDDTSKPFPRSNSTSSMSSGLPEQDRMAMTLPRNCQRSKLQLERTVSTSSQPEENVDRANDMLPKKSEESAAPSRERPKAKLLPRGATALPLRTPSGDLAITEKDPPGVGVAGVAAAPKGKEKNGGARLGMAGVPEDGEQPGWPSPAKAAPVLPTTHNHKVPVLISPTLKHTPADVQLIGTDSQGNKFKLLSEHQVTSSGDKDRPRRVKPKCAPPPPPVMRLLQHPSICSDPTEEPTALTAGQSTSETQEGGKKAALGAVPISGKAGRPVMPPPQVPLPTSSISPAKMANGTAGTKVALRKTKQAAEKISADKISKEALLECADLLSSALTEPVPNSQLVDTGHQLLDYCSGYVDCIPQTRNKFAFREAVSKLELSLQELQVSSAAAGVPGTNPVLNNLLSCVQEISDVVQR

pXC50 (Histamine H1 receptor): < 4.4 M
SMILES: CCn1c(-c2nc3cc(C(=O)N4CCCC(N)C4)ccc3n2C)cc2ccccc21 (stereo not drawn)

% of inhibition [1]: -8.7%
% of inhibition [2]: -5.8%
SMILES: CC[C@@H]1[C@H](F)C(=O)N[C@@H]1COc1nccc2cc(C(N)=O)c(OC)cc12 [ZIMLOVISERTIB]

SMILES: CCC(=O)N1CCN(c2ccc(-n3c(=O)ccc4cnc5ccc(-c6cnc7ccccc7c6)cc5c43)cc2C(F)(F)F)CC1
% of control [3]: 91%

% of inhibition [4]: 13%
SMILES: Cc1ccc(-c2ccc3c(ccc4sc5c(c43)NC[C@@H](C)NC5=O)n2)cn1

SMILES: C=CC(=O)Nc1cc(-n2c(=O)ccc3cnc4ccc(-c5ccc(NS(C)(=O)=O)cc5)cc4c32)ccc1C
% of control ([5]; at 1 µM): 100%
% of control ([5]; at 10 µM): 73%
% of control ([6]; at 1 µM): 79%
% of control ([6]; at 10 µM): 26%

SMILES: N#Cc1cccc(-c2c[nH]c3ncnc(N4CCOCC4)c23)c1
% of control [7]: 66%

SMILES: C=CC(=O)Nc1ccc(C(=O)Nc2[nH]nc3c2CN(C(=O)N[C@H](CN(C)C)c2ccccc2)C3(C)C)cc1
% of engagement [8]: 11.5%

SMILES: O=C(NOC[C@H](O)CO)c1ccc(F)c(F)c1Nc1ccc(I)cc1F
% of control [9]: 100%
% of control [10]: 98%
